Series [1] concerns TNF-α. Nature of the series: TNF-α activity assay (ELISA) in NIH/3T3. It counts as cell-based. The following applies: Mus musculus, NIH3T3; NIH/3T3 cell; read-out: inhibition of TNF-α production IC50. As for the experimental part: (§1) TNF-α activity assays. The protein expression levels of TNF-α were measured by using an enzyme-linked immunosorbent assay (ELISA) kit according to the manufacturer's instructions (Diaclone). Absorbance was read at 450 nm on a spectrophotometric ELISA plate reader (Anthos 2020, Version 2.0.5, Biochrom Ltd.,UK). The percentage of TNF-α inhibition was calculated from the ratio between the observed TNF-α amount secreted by treated cells (nM) and the baseline secretion of TNF-α (nM). Dexamethasone (Sigma-Aldrich; 50-02-2), was used as positive control (0.01 µM). Results were normalized to the solvent control DMSO (0.1%).
A general note: An ELISA detects its analyte on a solid surface through an enzyme-linked reagent.

For series [2], the system named is TNF-α. In words: TNF-α activity assay (ELISA) in THP-1. It counts as cell-based. As to conditions: Homo sapiens; THP-1 cell; read-out: inhibition of TNF-α production IC50. The protocol: as §1
Series [3] can be described thus: Total antioxidant activity assay (DPPH free radical assay, cell-free). The protocol:
Total antioxidant activity assay. […] DPPH (1,1-Diphenyl-2-[…]) is a purple coloured stable free radical that is reduced to the yellow-coloured diphenylpicrylhydrazine. In a volume of 1 mL of methanol the test samples are mixed with DPPH 0.125 mM. Trolox (200 µM) is included as a positive control. After 30 min of incubation at room temperature in the dark the absorbance measurements are read at 517 nm using Thermo Scientific Genesys 10 uv scanning spectrophotometer. Lower absorbance of the reaction mixtures indicated higher free radical-scavenging activity. DPPH radical-scavenging activity is calculated according to the following formula: %Antioxidant activity = [(Ac−As)/Ac] × 100 [formula]
Where Ac (control) is the absorbance of the control reaction (DPPH) and As (sample) is the absorbance of DPPH and sample.
(Loss of DPPH colour is used to gauge radical scavenging.)

Another series has as its system HIF-1α. In words: HIF-1α activity assay (NIH/3T3-EPO-luc luciferase reporter). It counts as cell-based. As to conditions: 6 h, read-out: inhibition of DFX-induced activation of EPO-Luc (surrogated marker of HIF-1α stabilization) IC50. As for the experimental part: HIF-1α activity assay. The NIH/3T3-EPO-luc cells have been stably transfected with the plasmid Epo-Luc plasmid. The EPO-Hypoxia Response Element (HRE)-luciferase reporter plasmid contains three copies of the HRE consensus sequence from the promoter of the erythropoietin gene in the pGL3 vector. Cells (1x10^4 for NIH/3T3-EPO-luc) are seeded the day before the assay. The next day, the cells are stimulated either with the compound or Desferrioxamine (DFX) 150 µM as a positive control. After 6 hours of stimulation the cells are lysed in 25 mM Tris-phosphate pH 7.8, 8 mM MgCl2, 1 mM DTT, 1% Triton X-100, and 7% glycerol during 15 min at RT in a horizontal shaker. Luciferase activity is measured using a GloMax 96 microplate luminometer (Promega) following the instructions of the luciferase assay kit (Promega, Madison, WI, USA). The RLU is calculated and the results are expressed as percentage of inhibition induction/inhibition of EPO-luc activity. The experimentsfor each concentration of the test items will be done in triplicate wells.
A general note: Reporter assays use an easily measured gene product as a stand-in for the process of interest.

Series [4] deals with THP-1 cell. In words: Cytotoxic activity assay. It counts as cell-based. The following applies: 48 h, at the tested concentrations. The protocol:
Cytotoxic activity assays. THP-1 cell was seeded in 96-well plates at a density of 5x10^4 cells/well and NIH/3T3 cells were seeded in 96-well plates at a density of 5x10^3 cells/well both incubated overnight at 37°C in a humidified atmosphere of 5% CO2. Subsequently, cells were treated with test compounds at the indicated concentrations and DMSO as control for 24 h. The test compounds were dissolved in DMSO (stock solution) and diluted with medium to a final DMSO concentration of 0.2%. MTT solution (50 µL, 7 mg/mL in PBS) was added to each well and plates were incubated for an additional 2 h. Next, the medium was removed and 100 µL of DMSO was added to each well to dissolve the formazan crystals that formed. The absorbance was measured at 590 nm using a spectrophotometric ELISA plate reader (SpectraMax® i3, Molecular Devices, CA, USA). Samples were considered nontoxic for the THP-1 and NIH/3T3 cell line when cell viability was ≥90%.
To analyse the cytotoxic activities of the test compound, THP-1 and NIH/3T3 cells were incubated with ODZN for 48 h and cytotoxicity was measured by fluorescence microscopy using an Incuyte microscope. […] (Figure 1).

For series [5], the system named is THP-1 cell. In words: Cellular antioxidant activity assay (TBHP-induced ROS production, DCFH-DA probe) in THP-1. It is filed as cell-based. The following applies: Homo sapiens, intracellular ROS induced by TBHP. The protocol: Cellular antioxidant activity assays. The intracellular accumulation of ROS is detected by fluorimetry using 2',7'-[…] (DCFH-DA). The THP-1 cell (1x10^5 cells/well) are cultured in a 96-well black plate in DMEM supplemented with 10% FBS; culture medium is renewed when the cells reached 80% confluence. For inhibition, the cells are pre-incubated with the test substances for 30 min and treated with 0,4 mM Tert-butylhydroperoxide (TBHP). After 3 h the cells are incubated with 10 µM DCFH-DA in the culture medium at 37°C for 30 min.
The acetate groups on DCFH-DA are removed by an intracellular esterase, trapping the probe inside the THP-1 cell. Then, the cells are washed with PBS at 37°C and the production of ROS measured by changes in fluorescence due to the intracellular accumulation of DCF caused by the oxidation of DCFH. Intracellular ROS, as indicated by DCF fluorescence is detected using the Incucyte FLR software; the data are analyzed by the total green object integrated intensity (GCU x µm^2 x well) of the imaging system IncuCyte HD (Essen BioScience).

The test system of series [6] is NF-κB. In words: NF-κB activity assay (KBF-Luc luciferase reporter) in NIH/3T3. It counts as cell-based. The following applies: Mus musculus, NIH3T3; NIH/3T3 cell; read-out: inhibition of NF-κB production IC50. The protocol: NF-κB activity assays. The NIH/3T3-KBF-Luc cells has been stably transfected with the plasmid KBF-Luc plasmid, which contains three copies of NF-κB binding site (from major histocompatibility complex promoter), fused to a minimal simian virus 40 promoter driving the luciferase gene. Cells (1x10^4 for NIH/3T3-KBF-Luc) are seeded the day before the assay on 96-well plate. Then the cells are treated with the test substances for 15 min and then stimulated with 30 ng/mL TNF-α. After 6 h, the cells are washed twice with PBS and lysed in 50µl lysis buffer containing 25 mM Tris-phosphate (pH 7.8), 8 mM MgCl2, 1 mM DTT, 1% Triton X-100, and 7% glycerol during 15 min at RT in a horizontal shaker. Luciferase activity is measured using a GloMax 96 microplate luminometer (Promega) following the instructions of the luciferase assay kit (Promega, Madison, WI, USA). The RLU is calculated and the results are expressed as percentage of inhibition of NF-κB activity induced by TNF-α (100% activation). The experiments for each concentration of the test items will be done in triplicate wells.

The next series deals with STAT3. In words: STAT3 activity assay (HeLa-STAT3-luc luciferase reporter). It counts as cell-based. The following applies: HeLa-STAT3-Luc cells, IFNγ 25 U/mL, 6 h; read-out: inhibition of IFNγ-induced STAT3 activation IC50. As for the experimental part: STAT3 activity assay. The HeLa-STAT3-luc cells have been stably transfected with the plasmid 4xM67 pTATA TK-Luc. Cells (15 x10^3 cells/mL) are seeded 96-well plate the day before the assay. Then the cells are treated with the compound for 15 min and then stimulated with IFN-γ 25 IU/mL. After 6 h, the cells are washed twice with PBS and lysed in 50 µL lysis buffer containing 25 mM Tris-phosphate (pH 7.8), 8 mM MgCl2, 1 mM DTT, 1% Triton X-100, and 7% glycerol during 15 min at RT in a horizontal shaker. Luciferase activity was measured using GloMax 96 microplate luminometer (Promega) following the instructions of the luciferase assay kit (Promega, Madison, WI, USA). The RLU is calculated and the results are expressed as percentage of inhibition of STAT3 activity induced by IFN-γ (100% activation). The experiments for each concentration of the test items will be done in triplicate wells.

In another series the test system is NIH/3T3 cell. In words: Cellular antioxidant activity assay (TBHP-induced ROS production, DCFH-DA probe) in NIH/3T3. As to conditions: Mus musculus, NIH3T3, intracellular ROS induced by TBHP. It is filed as cell-based.
Series [7] relates to NF-κB. Nature of the series: NF-κB activity assay in THP-1. It counts as cell-based. The following applies: Homo sapiens; THP-1 cell; read-out: inhibition of NF-κB production IC50.
The next series concerns the target T1, tyrosinase (Mus musculus, UniProt P11344).
T1 construct: To measure the tyrosinase activity of the cells, the B16-F10 cells treated for 3 days; endogenous in cells; host or cells: B16-F10 melanoma cells
T1 sequence (P11344 19-533): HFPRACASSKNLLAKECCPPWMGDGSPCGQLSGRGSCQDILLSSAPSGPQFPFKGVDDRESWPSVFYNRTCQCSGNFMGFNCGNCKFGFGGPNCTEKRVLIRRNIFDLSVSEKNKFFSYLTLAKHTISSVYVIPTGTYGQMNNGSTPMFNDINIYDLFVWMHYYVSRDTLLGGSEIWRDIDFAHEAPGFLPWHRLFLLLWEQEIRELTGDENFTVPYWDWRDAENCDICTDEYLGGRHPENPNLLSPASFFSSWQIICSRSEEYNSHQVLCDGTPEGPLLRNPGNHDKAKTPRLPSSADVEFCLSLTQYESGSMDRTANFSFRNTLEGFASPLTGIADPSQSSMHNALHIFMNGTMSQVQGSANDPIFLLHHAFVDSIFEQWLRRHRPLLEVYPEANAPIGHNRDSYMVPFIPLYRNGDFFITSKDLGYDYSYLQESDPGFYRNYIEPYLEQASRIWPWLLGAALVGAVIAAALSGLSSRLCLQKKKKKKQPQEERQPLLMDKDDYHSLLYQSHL
Nature of the series: Tyrosinase activity assay in B16-F10 melanoma cells. It counts as cell-based. The following applies: 72 h treatment, read-out: inhibits melanin synthesis IC50. The protocol:
Tyrosinase activity assay. To measure the tyrosinase activity of the cells, the B16-F10 cells treated for 3 days with several doses of the compound is lysed by incubation at 4°C for 30 min in lysis buffer (20 mM sodium phosphate, pH 6.8, 1% Triton X-100, 1 mM PMSF, 1 mM EDTA) containing protease inhibitors cocktail. The lysates are centrifuged at 15,000 × g for 10 min to obtain the supernatant as the source of tyrosinase. The reaction mixture contained 20 mM phosphate buffer, pH 6.8, 1.25 mM L-DOPA (Sigma-Aldrich). After incubation at 37°C for 2 h, dopachrome formation is monitored by measuring absorbance at a wavelength of 475 nm in a microplatereader (TECAN). Kojic acid 2 mM is used as a positive control.

pIC50: −log10 of the molar value.

As usually defined, the pIC50 is −log10 of the IC50, conventionally taken in molar units. For the molecule `CCCCCC1=NN(C(=O)CCO)OC(CCCCC)C1` (stereo not drawn) [ODZN, 1-(4,6-dipentyl-5,6-dihydro-2H-1,2,3-oxadiazin-2-yl)-3-hydroxypropan-1-one], the pIC50 with TNF-α [1] is 8.09; with TNF-α [2], 7.83; in [3] (cell-free assay (DPPH)), 8.01; in the series on HIF-1α, 8.02; in the series with THP-1 cell [5], 7.98; in the series on NF-κB [6], 7.50. Also, the pIC50 in the series on STAT3 was 8.81; in the series on NIH/3T3 cell it was 8.48; with NF-κB [7], 7.25; on tyrosinase, 7.77. Besides, the cytotoxicity entry with THP-1 cell [4] was “no cytotoxicity”.
In turn, `Cc1c(C)c2c(c(C)c1O)CCC(C)(C(=O)O)O2` (stereo not drawn) [Trolox, reference compound] came in with an antioxidant activity in series [3] (DPPH free radical assay, standard, 200 µM positive control) of 92.08%.
